Key:
[1] = system: nitric oxide (NO); assay: Nitric oxide production in DC2.4 and BMDC (Griess reaction)
Procedure: The secretion of reactive oxygen species (ROS) and nitric oxide (NO) was investigated in DC2.4 and BMDC.
Supernatants were then incubated with Griess reagent for 10 minutes and then absorbance was measured at 550 nm.

[2] = system: TLR4; assay: Surface TLR4 expression on DC2.4 and BMDC; conditions: DC2.4 and BMDC 18 hours indole, BMDC indole from day 3
Description: The ability of antigen-presenting cells to respond to bacterial LPS is dependent upon the expression of TLR4 on their surface.

[3] = system: Erk; assay: phospho-Erk signaling in BMDMs; type: cell-based, mouse
Procedure: The PI3K/Akt and MAPK/Erk signaling pathways regulate many cellular processes including survival, apoptosis, growth, and cytokine production. […] Specifically, BMDMs were treated with indole (1 mM) or DMF control for 18 hours, then stimulated with LPS (10 ug/ml) or CpG (5 uM) for 30 minutes. Cells were stained for phospho-Akt or phospho-Erk and analyzed by flow cytometry.
The inventors performed a series of assays where bone marrow derived macrophages (BMDMs), bone marrow derived dendritic cells (BMDCs), and splenic dendritic cells (splenic DCs), were exposed to a series of TDMMs, including indole, indole-3-acetate (I3AT), 5-hydroxyindole (5HI), and indole-3-pyruvate (I3P), as well as indole-3-carbinol (I3C; a plant derived compound) to be used for a positive control (1 mM for 24 hours). The BMDMs and BMDCs were stimulated with LPS for 4 hours and assayed at day 7 for expression of various pro-inflammatory cytokines. In a similar assay, the BMDMs and BMDCs were stimulated with LPS or CpG, respectively, for 15 minutes and assayed for pAKT and pERK signaling, which is a reflection of pro-inflammatory response.

[4] = system: aldh1a2; assay: aldh1a2 gene expression in BMDCs, real-time qPCR; type: cell-based, murine; conditions: day 7 BMDCs cultured with indole from day 3
Procedure: FIG. 13A: BMDCs were cultured from day 3 with indole (1 mM), retinoic acid (1 uM), or DMF control were assayed for aldehyde dehydrogenase (ALDH) activity using the Aldefluor commercial kit. The ALDH inhibitor, DEAB reagent, was included to control for background fluorescence. Aldefluor fluorescence as a measure of ALDH activity was analyzed by flow cytometry. Data is reported as percentage of Aldefluor positive DCs (left panel) and corresponding MFI values (right panel). Individual dots represent data from five independent experiments. FIG. 13B: Gene expression of aldh1a2 was assayed by real-time qPCR in day 7 BMDCs cultured with indole from day 3. Gene expression was normalized to 18 s ribosomal RNA. Mean of three independent experiments. *p<0.05 by Student's t test.
Total RNA was extracted from BMDCs using RNeasy Mini Kit (Qiagen) and then retro-transcribed using cDNA Superscript Mastermix (Quanta). Quantitative PCR reactions were carried out in triplicate using Perfecta SYBR Green Fast Mix, Low ROX (Quanta).
Gene expression levels for each individual sample were normalized to 18 s. Mean relative gene expression was determined and differences were calculated using the 2^−ΔC(t) method.

[5] = system: Th2 cells; assay: Th2 differentiation in DC-T cell co-culture; type: cell-based, mouse; conditions: co-culture with DCs conditioned with indole
Procedure: FIGS. 19A-19C graphically illustrate that indole-conditioned DCs inhibit Th1, Th2, and Th17 differentiation. Naïve CD4+CD25-T cells from OT-II TCR transgenic mice were isolated by column purification. Naïve T cells were then co-cultured with OVA323-339 peptide-loaded BMDCs for 72 hours in the presence or absence of lineage-skewing cytokines (described in methods). BMDCs were previously treated with indole, RA, or DMF from day 3. For the last 5 hours of culture, T cells were restimulated with PMA and ionomycin in the presence of Golgiplug, followed by intracellular staining. Cytokine production was determined to assess differentiation of Th1 (FIG. 19A), Th2 (FIG. 19B), and Th17 CD4+T (FIG. 19C) cells. Mean of three independent experiments. * indicates p<0.05 for one-way ANOVA followed by Dunnett's post-test.
In order to determine whether the indole-conditioned DC induction of Tregs was specific to this lineage, additional T cell fates were quieried. Activated CD4+T helper cells are typically divided into the subsets Th1, Th2, Th17, and Treg, based on their expression of transcription factors and pattern of cytokine secretion. The antigen-specific co-culture system was used to investigate these remaining traditional T cell lineages with the addition of an endpoint PMA/Ionomycin stimulation to induce cytokine secretion. […]

## c1ccc2[nH]ccc2c1 [Indole, indole]
[1]
  secretion of nitric oxide (NO): intact
[2]
  surface TLR4 expression on DCs: does not alter surface TLR4 expression
[3]; 1 mM TDMM 24 hours, LPS 1 ug/ml 15 minutes
  pERK: ↓
[3]; indole 1 mM 18 hours, LPS (10 ug/ml) or CpG (5 uM) 30 minutes
  dampening of pErk signaling: approximately 50%
[4]
  aldh1a2 expression: inhibits
[5]
  development of Th2 lineage: stark inhibition
